Data from a melting point compilation (Tetko et al.; mined from patent text by program, amines drawn as free bases though some values may be those of a salt).

With COC(=O)CS(=O)(=O)N1CC=C(c2ccc(-c3ccccc3)c(OC)c2)CC1 the melting point was 92 to 95 °C.
Work on Cc1cnc2c(c1)nc(C)n2-c1ccccc1 yielded a melting point of 77 to 79 °C.
Cc1nc2n(c(=O)c1CCO)CCS2 showed a melting point of 149 °C.
For O=C(O)CCc1sc(-c2ccccc2)nc1-c1ccc(Cl)cc1, the melting point was 142 to 143 °C.
In the case of CC(CS)C(=O)N(CC(=O)O)Cc1ccco1 (stereo not given), the melting point is reported as 150 to 153 °C.
With CC1(S(=O)(=O)N2C[C@@H](Cl)C[C@@H]2CCl)C=CC=CC1 (stereo not given in full) the melting point was 103 to 105 °C.
With CC(C)(Sc1cc(C(C)(C)C)c(O)c(C(C)(C)C)c1)Sc1cc(C(C)(C)C)c(OCCC[C@H](O)CO)c(C(C)(C)C)c1 the melting point was 68 to 71 °C.
Cn1cc(-c2cccc(I)c2)c(=O)c(-c2cccc(C(F)(F)F)c2)c1 gave a melting point of 178 to 181 °C.
O=C(COc1ccc(CCNS(=O)(=O)c2ccc(Cl)cc2)cc1)Nc1nnn[nH]1 gave a melting point of 228 to 230 °C.
In the case of CC1=CSC(n2ccc(OCc3ccc(C(F)(F)F)o3)cc2=O)N1C(=O)O (stereo not given), the melting point is reported as 261 to 263 °C.
CCC(=O)Oc1ccc(C#N)cc1 gave a melting point of 44 to 46 °C.
With CC(=O)Nc1noc(C)c1Cl the melting point was 121 to 122 °C.
With COc1nc(C(F)(F)C(F)(F)F)c(F)c(=O)n1-c1cc(C(=O)OC(C)C)c(Cl)cc1F the melting point was 75 to 77 °C.
Compound Fc1cc(-c2ccc3nnn(Cc4ccc5ncccc5c4)c3n2)ccc1OCC1CC1 has a melting point of 160 to 162 °C.
CN(C)CCN1C(=O)c2ccc3[nH]c4ccc(O)cc4c3c2C1=O showed a melting point of over 260 °C.
In the case of CCCCCCc1cc2c(s1)NC(=O)CN=C2c1ccc(OC)cc1, the melting point is reported as 123 to 125 °C.
Clc1cccc(Cl)c1C1CCN(Cc2[nH]c3ccccc3c2-c2ccccc2)CC1 gave a melting point of 162 to 164 °C.
With CNCC(O)COc1cccc(Nc2cc(Nc3cccc(C)c3)ncn2)c1 (stereo not given) the melting point was 88 to 90 °C.
CCC(CC)n1nnc2c(Nc3c(Br)cc(OC)cc3OC)nc(C)cc21 showed a melting point of 166 to 167 °C.
CC(=O)c1cc2cc(OCCNC[C@H](O)COc3ccccc3)ccc2o1 showed a melting point of 122 to 123 °C.
With CCCC(=O)OCC(=O)C12OCOC1CC1C3CCC4=CC(=O)C=CC4(C)C3C(O)CC12C (stereo not given) the melting point was 140 to 141 °C.
Compound COc1cc2c(cc1[N+](=O)[O-])NC(=O)CN(CC1CC1)C2 has a melting point of 178 °C.
For Cn1nc(OCC(=O)c2ccc(F)cc2)c(-c2ccc(F)cc2)c1-c1ccc(S(C)(=O)=O)cc1, the melting point was 173 to 176 °C.
Work on Nc1ccc(OCc2ccccc2)c2cnsc12 yielded a melting point of 126 to 128 °C.
COC(=O)[C@@H]1CCCN1C(=O)Nc1cc(Cl)cc(Cl)c1 showed a melting point of 110 to 112 °C.
Work on CC(C)(C)c1cc(C2=CCOCC2)c(O)c(C(C)(C)C)c1 yielded a melting point of 135 to 139 °C.
CC(C)C(=O)c1ccc(N2CCOCC2)cc1 gave a melting point of 75 to 77 °C.
Compound O=C1c2ccccc2C(=O)N1Cc1ccc(I)cc1Cl has a melting point of 140 to 142 °C.
Compound CNC(=O)ON=C1SCC(=O)N1C(C)C has a melting point of 94 to 96 °C.
For CC(C)(O)C1Cc2cc3ccc(=O)oc3cc2O1 (stereo not given), the melting point was 186 to 187 °C.
Work on COc1cc2ncc(C(=O)O)c(Nc3cccc(Br)c3)c2cc1OC yielded a melting point of 282 to 285 °C.
Work on COc1ccc(Nc2nc(-c3cccc(C(=O)Nc4ccc(C(=O)O)cc4)c3)cn3ccnc23)cc1OC yielded a melting point of over 250 °C.
In the case of CCOC(=O)c1cccc(NC(=O)N2CCC(CNC[C@H](O)COc3cccc4[nH]c5ccccc5c34)CC2)c1, the melting point is reported as 160 °C.
With O=C(NCc1ccc(Cl)cc1)c1cn(-c2ccccn2)c2oc(CCl)cc2c1=O the melting point was 224 to 227 °C.
Compound Cc1nc(CCCCCCC(=O)O)c(C(=O)O)s1 has a melting point of 147 to 149 °C.
Work on COC(=O)C(C)(C)C(Cc1ccc(OC)cc1)N(C)S(=O)(=O)c1ccc(C)cc1 (stereo not given) yielded a melting point of 132 to 134 °C.
CS(=O)(=O)c1ccc(-c2cc(=O)cc(C(=O)O)o2)cc1 showed a melting point of 269 to 271 °C.
With Cc1ccc(C(C)C)n1N the melting point was 21 to 24 °C.
Cc1c(CO)ncnc1N1CCCCC1 showed a melting point of 79 to 81 °C.
In the case of CN(C)[C@H]1CC[C@@H](n2cc(-c3ccc(Oc4ccccc4)cc3)c3c(N)ncnc32)CC1, the melting point is reported as 180 to 182 °C.
O=C1C(=Cc2cccs2)CCc2cc(OCCn3ccnc3)ccc21 gave a melting point of 137 to 138 °C.
Work on CCc1c(CCNC(=O)CCCCC(=O)NC(C)(C)Cc2ccc3c(c2CC)OCO3)ccc(OC)c1OC yielded a melting point of 103 to 104 °C.
With O=S(=O)(c1cccc(-c2cc(-c3nc(-c4ccc(C(F)(F)F)cc4)cc(C(F)(F)F)n3)ccn2)c1)N1CCC(O)C1 (racemic) the melting point was 234 °C.
COc1cc(OC)c2ncc(C(=O)NCc3ccc(Cl)cc3)c(O)c2c1 gave a melting point of 270 to 271 °C.
Compound CCOC(=O)C(C)(C)Cc1c(SC(C)(C)C)c2cc(O)ccc2n1Cc1ccc(Cl)cc1 has a melting point of 151 to 152 °C.
Work on CC(C)c1cccc(C(C)C)c1NC(=O)NC1CCOc2ccccc2C1 (stereo not given) yielded a melting point of 184 to 186 °C.
Compound CS(=O)(=O)Nc1ccc(NS(C)(=O)=O)c(S)c1 has a melting point of 174 to 176 °C.
In the case of Cc1c(-c2ccccc2)oc2c(OCCCCCBr)cccc2c1=O, the melting point is reported as 75 to 76 °C.
COc1cc(OC)c2c(c1)c(C(=O)C(=O)NC1=CC(=O)OC1)cn2Cc1ccc(Cl)cc1 showed a melting point of 280 to 282 °C.
For CC(C)n1nc(-c2sc(C(N)=O)nc2-c2ccc(F)cc2)ccc1=O, the melting point was 226 to 228 °C.
